Measurements as given in PubChem BioAssay AID212 (DTP/NCI, 2004).
“And” between values parts separate entries of the source, which are not always exact repeats. Equal entries are not always repeated. Inconclusive results are not listed.

Tested on: BDF1 mice, colon carcinoma 38 sc, T/C %
Test: NCI In Vivo Anticancer Drug Screen. Data for tumor model Colon Carcinoma 38 (subcutaneous) in B6D2F1 (BDF1) mice
Conditions: endpoint: median tumor weight (est.), higher = larger tumour
Method in brief: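 Transplantable tumor in mice; compound-treated vs vehicle-dosed controls. Measured survival or tumor size; value = T ÷ C.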

[1] = dose: 50.0 mg/kg/injection, schedule: Q07DX002 (ip), vehicle: saline with Tween-80
[2] = dose: 100.0 mg/kg/injection, schedule: Q07DX002 (ip), vehicle: saline with Tween-80
[3] = dose: 200.0 mg/kg/injection, schedule: Q07DX002 (ip), vehicle: saline with Tween-80
[4] = dose: 400.0 mg/kg/injection, schedule: Q07DX002 (ip), vehicle: saline with Tween-80

Question: How did the T/C (dose: 8.0 mg/kg/injection, schedule: Q07DX002 (ip), vehicle: Klucel (hydroxypropylcellulose) (HPC)) turn out when `O=C(NP(=O)(N1CC1)N1CC1)c1cc(I)ccc1I` was run?
Answer: The T/C was 105 % of control.

Question: What about the T/C (dose: 16.0 mg/kg/injection, schedule: Q07DX002 (ip), vehicle: Klucel (hydroxypropylcellulose) (HPC)) of the same molecule?
Answer: The T/C was 47 % of control.

Question: And the T/C (dose: 32.0 mg/kg/injection, schedule: Q07DX002 (ip), vehicle: Klucel (hydroxypropylcellulose) (HPC))?
Answer: Its T/C is 92 % of control.

Question: And the T/C (dose: 64.0 mg/kg/injection, schedule: Q07DX002 (ip), vehicle: Klucel (hydroxypropylcellulose) (HPC))?
Answer: The T/C was 55 % of control.

Question: What about the T/C (dose: 128.0 mg/kg/injection, schedule: Q07DX002 (ip), vehicle: Klucel (hydroxypropylcellulose) (HPC)) of the same molecule?
Answer: Its T/C is 22 % of control.

Question: What about the T/C (dose: 256.0 mg/kg/injection, schedule: Q07DX002 (ip), vehicle: Klucel (hydroxypropylcellulose) (HPC)) of the same molecule?
Answer: The T/C was 31 % of control.

Question: What does the source list for `O=C(O)CCc1cccc2c(=O)cc(-c3ccccc3)oc12`?
Answer: T/C (dose: 100.0 mg/kg/injection, schedule: Q07DX002 (ip), vehicle: saline): 60 % of control; T/C (dose: 200.0 mg/kg/injection, schedule: Q07DX002 (ip), vehicle: saline): 100 % of control; T/C (dose: 400.0 mg/kg/injection, schedule: Q07DX002 (ip), vehicle: saline): 120 % of control

Question: Which T/C (dose: 50.0 mg/kg/injection, schedule: Q07DX003 (ip), vehicle: water) does the source give for `CC(C)[C@](O)(C(=O)OCC1=CC[N+]2([O-])CC[C@@H](O)[C@@H]12)[C@H](C)O` (some centres undefined) here?
Answer: Its T/C is 66 % of control.

Question: What about the T/C (dose: 100.0 mg/kg/injection, schedule: Q07DX003 (ip), vehicle: water) of the same molecule?
Answer: Its T/C is 185 % of control.

Question: What about the T/C (dose: 200.0 mg/kg/injection, schedule: Q07DX002 (ip), vehicle: water) of the same molecule?
Answer: The T/C was 73 % of control.

Question: And the T/C (dose: 200.0 mg/kg/injection, schedule: Q07DX003 (ip), vehicle: water)?
Answer: Its T/C is 123 % of control.

Question: And the T/C (dose: 400.0 mg/kg/injection, schedule: Q07DX002 (ip), vehicle: water)?
Answer: Its T/C is 92 % of control.

Question: And the T/C (dose: 400.0 mg/kg/injection, schedule: Q07DX003 (ip), vehicle: water)?
Answer: Its T/C is 71 % of control.

Question: What about the T/C (dose: 800.0 mg/kg/injection, schedule: Q07DX002 (ip), vehicle: water) of the same molecule?
Answer: Its T/C is 64 % of control.

Question: What about the T/C (dose: 800.0 mg/kg/injection, schedule: Q07DX003 (ip), vehicle: water) of the same molecule?
Answer: The T/C was 68 % of control.

Question: What about the T/C (dose: 1600.0 mg/kg/injection, schedule: Q07DX002 (ip), vehicle: water) of the same molecule?
Answer: The T/C was 48 % of control.

Question: For `Nc1ncnc2c(C3OC(CO)C(O)C3O)[nH]nc12` (centres undefined), which T/C (dose: 15.0 mg/kg/injection, schedule: Q07DX002 (ip), vehicle: suspension in saline) is on record?
Answer: The T/C was 193 % of control.

Question: And the T/C (dose: 30.0 mg/kg/injection, schedule: Q07DX002 (ip), vehicle: suspension in saline)?
Answer: Its T/C is 201 % of control.

Question: And the T/C (dose: 60.0 mg/kg/injection, schedule: Q07DX002 (ip), vehicle: suspension in saline)?
Answer: Its T/C is 168 % of control.

Question: What about the T/C (dose: 120.0 mg/kg/injection, schedule: Q07DX002 (ip), vehicle: suspension in saline) of the same molecule?
Answer: Its T/C is 150 % of control.

Question: For `C(CC1CO1)C1CO1` (centres undefined), which T/C (dose: 5.0 mg/kg/injection, schedule: Q07DX002 (ip), vehicle: Klucel (hydroxypropylcellulose) (HPC)) is on record?
Answer: The T/C was 172 % of control and 185 % of control.

Question: And the T/C (dose: 10.0 mg/kg/injection, schedule: Q07DX002 (ip), vehicle: Klucel (hydroxypropylcellulose) (HPC))?
Answer: The T/C was 106 % of control.

Question: And the T/C (dose: 40.0 mg/kg/injection, schedule: Q07DX002 (ip), vehicle: Klucel (hydroxypropylcellulose) (HPC))?
Answer: Its T/C is 245 % of control.

Question: What about the T/C (dose: 80.0 mg/kg/injection, schedule: Q07DX002 (ip), vehicle: Klucel (hydroxypropylcellulose) (HPC)) of the same molecule?
Answer: Its T/C is 115 % of control.

Question: And the T/C (dose: 160.0 mg/kg/injection, schedule: Q07DX002 (ip), vehicle: Klucel (hydroxypropylcellulose) (HPC))?
Answer: The T/C was 81 % of control.

Question: What does the source list for `CC[C@]1(O)C[C@H](OC2CC(N(C)C)C(OC3CC(O)C(O)C(C)O3)C(C)O2)c2c(cc3c(c2O)C(=O)c2c(O)ccc(O)c2C3=O)[C@H]1C(=O)OC` (some centres undefined)?
Answer: T/C (dose: 0.38 mg/kg/injection, schedule: Q07DX003 (ip), vehicle: Klucel (hydroxypropylcellulose) (HPC)): 109 % of control; T/C (dose: 0.5 mg/kg/injection, schedule: Q07DX003 (ip), vehicle: Klucel (hydroxypropylcellulose) (HPC)): 45 % of control; T/C (dose: 0.75 mg/kg/injection, schedule: Q07DX003 (ip), vehicle: Klucel (hydroxypropylcellulose) (HPC)): 62 % of control; T/C (dose: 1.0 mg/kg/injection, schedule: Q07DX003 (ip), vehicle: Klucel (hydroxypropylcellulose) (HPC)): 25 % of control; T/C (dose: 1.5 mg/kg/injection, schedule: Q07DX003 (ip), vehicle: Klucel (hydroxypropylcellulose) (HPC)): 66 % of control; T/C (dose: 3.0 mg/kg/injection, schedule: Q07DX003 (ip), vehicle: Klucel (hydroxypropylcellulose) (HPC)): 73 % of control; T/C (dose: 4.0 mg/kg/injection, schedule: Q07DX003 (ip), vehicle: Klucel (hydroxypropylcellulose) (HPC)): 35 % of control; T/C (dose: 6.0 mg/kg/injection, schedule: Q07DX003 (ip), vehicle: Klucel (hydroxypropylcellulose) (HPC)): 79 % of control; T/C (dose: 8.0 mg/kg/injection, schedule: Q07DX003 (ip), vehicle: Klucel (hydroxypropylcellulose) (HPC)): 21 % of control

Question: What does the source list for `C[C@]12CC[C@@H]3c4ccc(OC(=O)Cc5ccc(N(CCCl)CCCl)cc5)cc4CC[C@H]3[C@@H]1CC[C@@H]2OC(=O)Cc1ccc(N(CCCl)CCCl)cc1`?
Answer: T/C [1]: 185 % of control; T/C [2]: 176 % of control; T/C [3]: 173 % of control and 201 % of control; T/C [4]: 256 % of control; T/C (dose: 800.0 mg/kg/injection, schedule: Q07DX002 (ip), vehicle: saline with Tween-80): 195 % of control

Question: With `C[n+]1cccc(NC(=O)c2ccc(NC(=O)C34CCC(C(=O)Nc5ccc(C(=O)Nc6ccc[n+](C)c6)cc5)(CC3)CC4)cc2)c1` as the molecule, how does the T/C (dose: 10.0 mg/kg/injection, schedule: Q07DX002 (ip), vehicle: saline with Tween-80) read?
Answer: The T/C was 60 % of control.

Question: And the T/C (dose: 20.0 mg/kg/injection, schedule: Q07DX002 (ip), vehicle: saline with Tween-80)?
Answer: The T/C was 57 % of control.

Question: And the T/C (dose: 22.5 mg/kg/injection, schedule: Q07DX002 (ip), vehicle: saline with Tween-80)?
Answer: Its T/C is 93 % of control.

Question: What about the T/C (dose: 40.0 mg/kg/injection, schedule: Q07DX002 (ip), vehicle: saline with Tween-80) of the same molecule?
Answer: Its T/C is 28 % of control.

Question: And the T/C (dose: 45.0 mg/kg/injection, schedule: Q07DX002 (ip), vehicle: saline with Tween-80)?
Answer: Its T/C is 71 % of control.

Question: What about the T/C (dose: 80.0 mg/kg/injection, schedule: Q07DX002 (ip), vehicle: saline with Tween-80) of the same molecule?
Answer: Its T/C is 20 % of control.

Question: What about the T/C (dose: 90.0 mg/kg/injection, schedule: Q07DX002 (ip), vehicle: saline with Tween-80) of the same molecule?
Answer: Its T/C is 109 % of control.

Question: Which T/C (dose: 3.12 mg/kg/injection, schedule: Q07DX003 (ip), vehicle: saline with Tween-80) does the source give for `CC1=C(/C=C/C(C)=C/C=C/C(C)=C/C(=O)O)C(C)(C)CCC1` here?
Answer: The T/C was 87 % of control.

Question: And the T/C (dose: 6.25 mg/kg/injection, schedule: Q07DX003 (ip), vehicle: saline with Tween-80)?
Answer: Its T/C is 96 % of control.

Question: What about the T/C (dose: 8.0 mg/kg/injection, schedule: Q07DX003 (ip), vehicle: saline with Tween-80) of the same molecule?
Answer: Its T/C is 103 % of control.

Question: What about the T/C (dose: 12.5 mg/kg/injection, schedule: Q07DX003 (ip), vehicle: saline with Tween-80) of the same molecule?
Answer: Its T/C is 99 % of control.

Question: What about the T/C (dose: 25.0 mg/kg/injection, schedule: Q07DX003 (ip), vehicle: saline with Tween-80) of the same molecule?
Answer: Its T/C is 100 % of control.

Question: What about the T/C (dose: 32.0 mg/kg/injection, schedule: Q07DX003 (ip), vehicle: saline with Tween-80) of the same molecule?
Answer: The T/C was 98 % of control.

Question: And the T/C (dose: 64.0 mg/kg/injection, schedule: Q07DX003 (ip), vehicle: saline with Tween-80)?
Answer: Its T/C is 102 % of control.

Question: Which T/C [1] does the source give for `Nc1ccc2nc3c4ccccc4c(O)n3nc2c1` here?
Answer: The T/C was 83 % of control.

Question: What about the T/C [2] of the same molecule?
Answer: The T/C was 101 % of control.

Question: What about the T/C [3] of the same molecule?
Answer: The T/C was 94 % of control.

Question: What about the T/C [4] of the same molecule?
Answer: Its T/C is 98 % of control.
